Experimental data: US8613914B2, “Peptidomimetic sulfamide compounds and antiviral uses thereof” (Novartis AG, priority 2009, dated 2013)

target: HCV NS3-4A serine protease (full-length NS3-4A protein) (Hepatitis C virus genotype 1a (isolate 1) (HCV), UniProt P26664); assay: HCV NS3-4A protease assay; assay type: biochemical, HCV genotype 1a; details: strain HCV-1, fluorogenic peptide substrate, read-out: Protease assay Ex. 12 IC50
Protocol: The inhibitory activity of certain compounds of Table A against HCV NS3-4A serine protease is determined in a homogenous assay using the full-length NS3-4A protein (genotype 1a, strain HCV-1) and a commercially available internally-quenched fluorogenic peptide substrate as described by Taliani, M., et al. 1996 Anal. Biochem. 240:60-67, which is incorporated by reference in its entirety.

Sequence of HCV NS3-4A serine protease (full-length NS3-4A protein) (P26664 1027-1657): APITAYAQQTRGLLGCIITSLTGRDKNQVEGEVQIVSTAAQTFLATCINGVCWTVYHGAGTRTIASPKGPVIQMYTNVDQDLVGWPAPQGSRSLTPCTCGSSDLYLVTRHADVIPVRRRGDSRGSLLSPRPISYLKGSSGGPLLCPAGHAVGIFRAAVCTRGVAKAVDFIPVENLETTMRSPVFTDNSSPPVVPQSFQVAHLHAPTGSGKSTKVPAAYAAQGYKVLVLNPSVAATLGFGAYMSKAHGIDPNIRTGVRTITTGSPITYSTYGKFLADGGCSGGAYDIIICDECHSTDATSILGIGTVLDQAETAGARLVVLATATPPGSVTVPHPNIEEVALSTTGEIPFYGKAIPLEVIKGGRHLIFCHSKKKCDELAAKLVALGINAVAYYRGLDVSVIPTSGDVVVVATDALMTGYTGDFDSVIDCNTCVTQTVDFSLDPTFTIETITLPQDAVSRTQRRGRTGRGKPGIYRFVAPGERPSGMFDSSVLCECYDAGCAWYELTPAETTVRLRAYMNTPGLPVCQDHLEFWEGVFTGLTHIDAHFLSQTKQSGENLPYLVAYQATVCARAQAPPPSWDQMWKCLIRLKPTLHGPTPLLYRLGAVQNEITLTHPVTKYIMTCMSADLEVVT
Sequence of HCV NS3-4A serine protease (full-length NS3-4A protein) (P26664 1658-1711 partner): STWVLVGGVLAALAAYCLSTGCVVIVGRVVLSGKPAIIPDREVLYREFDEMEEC

Row | SMILES | IC50 [µM]
1 | C=C[C@@H]1C[C@]1(NC(=O)[C@@H]1C[C@@]2(CN1C(=O)[C@@H](NC(=O)[C@@H](NC(=O)[C@@H]1CCCN1CC)C1CCCCC1)C(C)(C)C)C(C)(C)C21CCC1)C(=O)NS(=O)(=O)N(CC)CCC [Compound 107, (5R,8S)-7-[(2S)-2-{[(2S)-2-cyclohexyl-2-({[(2S)-1-ethylpyrrolidin-2-yl]carbonyl}amino)acetyl]amino}-3,3-dimethylbutanoyl]-N-[(1R,2S)-1-({[ethyl(propyl)amino]sulfonyl}carbamoyl)-2-vinylcyclopropyl]-10,10-dimethyl-7-azadispiro[3.0.4.1]decane-8-carboxamide] | 0.009
2 | C=C[C@@H]1C[C@]1(NC(=O)[C@@H]1C[C@@]2(CN1C(=O)[C@@H](NC(=O)C(Nc1cccnc1)C(C)(C)C)C(C)(C)C)C(C)(C)C21CCC1)C(=O)NS(=O)(=O)N1CCCC1 (stereo partly drawn) [Compound 51, (5R,8S)-7-[(2S)-2-{[3,3-dimethyl-2-(pyridin-3-ylamino)butanoyl]amino}-3,3-dimethylbutanoyl]-10,10-dimethyl-N-{(1R,2S)-1-[(pyrrolidin-1-ylsulfonyl)carbamoyl]-2-vinylcyclopropyl}-7-azadispiro[3.0.4.1]decane-8-carboxamide] | 1.15
3 | C=C[C@@H]1C[C@]1(NC(=O)[C@@H]1C[C@@]2(CN1C(=O)[C@@H](NC(=O)[C@@H](NC(=O)[C@@H]1CCCN1CC)c1ccccc1)C(C)(C)C)C(C)(C)C21CCC1)C(=O)NS(=O)(=O)N1CCCC1 [Compound 102, (5R,8S)-7-[(2S)-2-{[(2S)-2-({[(2S)-1-ethylpyrrolidin-2-yl]carbonyl}amino)-2-phenylacetyl]amino}-3,3-dimethylbutanoyl]-10,10-dimethyl-N-{(1R,2S)-1-[(pyrrolidin-1-ylsulfonyl)carbamoyl]-2-vinylcyclopropyl}-7-azadispiro[3.0.4.1]decane-8-carboxamide] | 0.008
4 | C=C[C@@H]1C[C@]1(NC(=O)[C@@H]1C[C@@]2(CN1C(=O)[C@@H](NC(=O)[C@@H](NC(=O)[C@@H]1CCCCN1C(C)C)C1CCCCC1)C1CCOCC1)C(C)(C)C21CCC1)C(=O)NS(=O)(=O)N(CC)CC [Compound 84, (5R,8S)-7-[(2S)-2-{[(2S)-2-cyclohexyl-2-({[(2S)-1-isopropylpiperidin-2-yl]carbonyl}amino)acetyl]amino}-2-(tetrahydro-2H-pyran-4-yl)acetyl]-N-[(1R,2S)-1-{[(diethylamino)sulfonyl]carbamoyl}-2-vinylcyclopropyl]-10,10-dimethyl-7-azadispiro[3.0.4.1]decane-8-carboxamide] | 0.006
5 | C=C[C@@H]1C[C@]1(NC(=O)C1C[C@@]2(CN1C(=O)[C@@H](NC(=O)c1cccc(C(=O)NCCC)c1)C(C)(C)C)C(C)(C)C21CCC1)C(=O)NS(=O)(=O)N1CCCC1 (stereo partly drawn) [Compound 68, N-[(1S)-1-{[(5R)-10,10-dimethyl-8-({(1R,2S)-1-[(pyrrolidin-1-ylsulfonyl)carbamoyl]-2-vinylcyclopropyl}carbamoyl)-7-azadispiro[3.0.4.1]dec-7-yl]carbonyl}-2,2-dimethylpropyl]-N′-propylisophthalamide] | 0.95
6 | C=C[C@@H]1C[C@]1(NC(=O)[C@@H]1C[C@@]2(CN1C(=O)[C@@H](NC(=O)[C@@H](NC(=O)C(C)(C)N1CCCCC1)C(C)(C)C)C(C)(C)C)C(C)(C)C21CCC1)C(=O)NS(=O)(=O)N1CCCC1 [Compound 24, (5R,8S)-7-[(2S)-2-({(2S)-3,3-dimethyl-2-[(2-methyl-2-piperidin-1-ylpropanoyl)amino]butanoyl}amino)-3,3-dimethylbutanoyl]-10,10-dimethyl-N-{(1R,2S)-1-[(pyrrolidin-1-ylsulfonyl)carbamoyl]-2-vinylcyclopropyl}-7-azadispiro[3.0.4.1]decane-8-carboxamide] | 0.065
